Measurements reported in patent US10550105B2 (Ribon Therapeutics Inc., priority 2018, dated 2020).
pIC50: −log10 of the molar value.

The compounds below were run against PARP7 (Homo sapiens (Human), UniProt Q7Z3E1) (assay: Enzymatic assay for inhibition of PARP7: TR-FRET displacement of biotinylated Probe A from the TIPARP active site). Conditions: Table A-1.
Format: binding
How it was run: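 Compound dose-response series were incubated with TIPARP and biotinylated Probe A, with a final 30 min step at 25 °C. TR-FRET was read at 320 nm excitation, 615/665 nm emission and 90 μs delay, using the 665/615 ratio to measure complex formation. % inhibition was fitted with a floating or fixed (1) Hill coefficient.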

PARP7, sequence (Q7Z3E1 whole entry): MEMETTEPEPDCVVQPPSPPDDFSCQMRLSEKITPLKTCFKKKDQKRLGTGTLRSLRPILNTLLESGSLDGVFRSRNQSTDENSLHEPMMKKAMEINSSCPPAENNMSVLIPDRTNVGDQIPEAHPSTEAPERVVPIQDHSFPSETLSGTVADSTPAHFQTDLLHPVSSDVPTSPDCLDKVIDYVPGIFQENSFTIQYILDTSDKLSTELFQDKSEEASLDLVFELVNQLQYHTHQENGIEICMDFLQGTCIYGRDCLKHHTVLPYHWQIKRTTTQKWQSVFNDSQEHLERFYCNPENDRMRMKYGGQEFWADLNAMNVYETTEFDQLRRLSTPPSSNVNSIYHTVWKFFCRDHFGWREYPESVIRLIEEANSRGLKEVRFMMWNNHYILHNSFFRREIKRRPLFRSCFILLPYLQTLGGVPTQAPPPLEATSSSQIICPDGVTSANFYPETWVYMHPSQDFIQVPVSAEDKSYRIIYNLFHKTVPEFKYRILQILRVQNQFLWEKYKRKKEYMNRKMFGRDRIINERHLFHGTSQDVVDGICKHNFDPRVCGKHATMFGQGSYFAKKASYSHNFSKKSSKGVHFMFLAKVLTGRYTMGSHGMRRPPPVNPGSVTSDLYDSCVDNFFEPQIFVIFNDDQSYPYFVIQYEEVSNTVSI

SMILES | pIC50
N#Cc1ccc(N2CCN(C(=O)C[C@H]3CC[C@H](COc4cn[nH]c(=O)c4C(F)(F)F)N3)CC2)nc1 [Example 638, 6-(4-(2-((2R,5R)-5-(((6-Oxo-5-(trifluoromethyl)-1,6-dihydropyridazin-4-yl)oxy)methyl)pyrrolidin-2-yl)acetyl)piperazin-1-yl)nicotinonitrile] | 6.00 to 7.00
CC[C@@H](COCCC(=O)N1CCN(c2ncc(C(F)(F)F)cn2)CC1)Oc1cn[nH]c(=O)c1Br [Example 657, (S)-4-Bromo-5-((1-(3-oxo-3-(4-(5-(trifluoromethyl)pyrimidin-2-yl)piperazin-1-yl)propoxy)butan-2-yl)oxy)pyridazin-3(2H)-one] | > 7.00
C[C@@H](COCCS(=O)(=O)N1CCN(c2ncc(C(F)(F)F)cn2)CC1)Oc1cn[nH]c(=O)c1C(F)(F)F [Example 728, (S)-4-(Trifluoromethyl)-5-((1-(2-((4-(5-(trifluoromethyl)pyrimidin-2-yl)piperazin-1-yl)sulfonyl)ethoxy)propan-2-yl)oxy)pyridazin-3(2H)-one] | > 7.00
N#CCCC(=O)N1CCN(C(=O)CCOC[C@@H]2c3ccccc3CN2c2cn[nH]c(=O)c2C(F)(F)F)CC1 [Example 423, (S)-4-Oxo-4-(4-(3-((2-(6-oxo-5-(trifluoromethyl)-1,6-dihydropyridazin-4-yl)isoindolin-1-yl)methoxy)propanoyl)piperazin-1-yl)butanenitrile] | > 7.00
O=c1[nH]ncc(N2Cc3cccc(N4CCC(O)C4)c3C2)c1C(F)(F)F (stereo not shown) [Example 305, 5-(4-(3-Hydroxypyrrolidin-1-yl)isoindolin-2-yl)-4-(trifluoromethyl)pyridazin-3(2H)-one 2,2,2-trifluoroacetic acid] | > 7.00
O=c1[nH]ncc(N2Cc3cccc(CO)c3C2)c1C(F)(F)F [Example 261, 5-(4-(Hydroxymethyl)isoindolin-2-yl)-4-(trifluoromethyl)pyridazin-3(2H)-one] | 6.00 to 7.00
CC[C@@H](COCCC(=O)N1CCN(c2ncc(Cl)cn2)CC1)Oc1cn[nH]c(=O)c1Br [Example 727, (S)-4-Bromo-5-((1-(3-(4-(5-chloropyrimidin-2-yl)piperazin-1-yl)-3-oxopropoxy)butan-2-yl)oxy)pyridazin-3(2H)-one] | > 7.00
Cc1cnc(N2CCN(C(=O)CCOC[C@H](C)Nc3cn[nH]c(=O)c3C(F)(F)F)CC2)s1 [Example 733, (S)-5-((1-(3-(4-(5-Methylthiazol-2-yl)piperazin-1-yl)-3-oxopropoxy)propan-2-yl)amino)-4-(trifluoromethyl)pyridazin-3(2H)-one] | > 7.00
CC[C@@H](COCCC(=O)N1CCN(c2ccc(C#N)cn2)CC1)Oc1cn[nH]c(=O)c1C(F)(F)F [Example 589, 6-(4-[3-[(2S)-2-[[6-Oxo-5-(trifluoromethyl)-1,6-dihydropyridazin-4-yl]oxy]butoxy]propanoyl]piperazin-1-yl)pyridine-3-carbonitrile] | > 7.00
CN(CC1c2ccccc2CN1c1cn[nH]c(=O)c1C(F)(F)F)c1cccc(C(=O)N2CCN(c3ccc(C#N)cn3)CC2)c1 (stereo not shown) [Example 343, 6-(4-(3-(Methyl((2-(6-oxo-5-(trifluoromethyl)-1,6-dihydropyridazin-4-yl)isoindolin-1-yl)methyl)amino)benzoyl)piperazin-1-yl)nicotinonitrile] | ≤ 6.00
COCCOc1ccc2c(n1)CN(c1cn[nH]c(=O)c1C(F)(F)F)C2 [Example 311, 5-(2-(2-Methoxyethoxy)-5,7-dihydro-6H-pyrrolo[3,4-b]pyridin-6-yl)-4-(trifluoromethyl)pyridazin-3(2H)-one] | 6.00 to 7.00
CC[C@@H](COCCC(=O)N1CCN(c2ncc(Cl)cn2)CC1)Nc1cn[nH]c(=O)c1C(F)(F)F [Example 588, 5-[[(2S)-1-[3-[4-(5-Chloropyrimidin-2-yl)piperazin-1-yl]-3-oxopropoxy]butan-2-yl]amino]-4-(trifluoromethyl)-2,3-dihydropyridazin-3-one] | > 7.00
CN1CCN(CCOc2cccc3c2CN(c2cn[nH]c(=O)c2C(F)(F)F)C3)CC1 [Example 226, 5-(4-(2-(4-Methylpiperazin-1-yl)ethoxy)isoindolin-2-yl)-4-(trifluoromethyl)pyridazin-3(2H)-one] | > 7.00
N#Cc1ccc(N2CCN(C(=O)CCOC[C@@H](Nc3cn[nH]c(=O)c3C(F)(F)F)c3ccncc3)CC2)nc1 [Example 527A, 6-(4-[3-[(2S)-2-[[6-Oxo-5-(trifluoromethyl)-1,6-dihydropyridazin-4-yl]amino]-2-(pyridin-4-yl)ethoxy]propanoyl]piperazin-1-yl)pyridine-3-carbonitrile] | > 7.00
N#Cc1ccc(N2CCN(C(=O)CCOC[C@H]3c4ncccc4CN3c3cn[nH]c(=O)c3C(F)(F)F)CC2)nc1 [Example 137B, 6-[4-(3-[[(7R)-6-[6-oxo-5-(trifluoromethyl)-1,6-dihydropyridazin-4-yl]-5H,6H,7H-pyrrolo[3,4-b]pyridin-7-yl]methoxy]propanoyl)piperazin-1-yl]pyridine-3-carbonitrile] | > 7.00
Cc1c(N2CCC[C@H]2COCCC(=O)N2CCN(c3ccc(C#N)cn3)CC2)cn[nH]c1=O [Example 480, (S)-6-(4-(3-((1-(5-Methyl-6-oxo-1,6-dihydropyridazin-4-yl)pyrrolidin-2-yl)methoxy)propanoyl)piperazin-1-yl)nicotinonitrile] | > 7.00
N#Cc1ccc(N2CCN(C(=O)C[C@H]3CC[C@H](COc4cn[nH]c(=O)c4Cl)O3)CC2)nc1 (single isomer, unassigned) [Example 582 Isomer B] | 6.00 to 7.00

Second part, the compound after the results:

pIC50 | SMILES
> 7.00 | C[C@H](O)[C@@H](COCCC(=O)N1CCN(c2ncc(C(F)(F)F)cn2)CC1)Nc1cn[nH]c(=O)c1C(F)(F)F [Example 611, 5-[[(2R,3S)-3-Hydroxy-1-(3-oxo-3-[4-[5-(trifluoromethyl)pyrimidin-2-yl]piperazin-1-yl]propoxy)butan-2-yl]amino]-4-(trifluoromethyl)-2,3-dihydropyridazin-3-one]
6.00 to 7.00 | O=C(C[C@@H]1CC[C@@H](COc2cn[nH]c(=O)c2C(F)(F)F)O1)N1CCN(c2ccc(C(F)(F)F)cn2)CC1 (single isomer, unassigned) [Example 545 Isomer A]
6.00 to 7.00 | CN1CCN(C(=O)c2cccc(OCC3c4ccccc4CN3c3cn[nH]c(=O)c3C(F)(F)F)c2)CC1 (stereo not shown) [Example 362, 5-(1-((3-(4-Methylpiperazine-1-carbonyl)phenoxy)methyl)isoindolin-2-yl)-4-(trifluoromethyl)pyridazin-3(2H)-one]
6.00 to 7.00 | N#Cc1ccc(N2CCN(C(=O)C[C@@H]3CC[C@@H](COc4cn[nH]c(=O)c4C(F)(F)F)O3)CC2)nc1 (single isomer, unassigned) [Example 580 Isomer A]
> 7.00 | O=c1[nH]ncc(N2Cc3cc(F)c(OC4CCNCC4)cc3C2)c1C(F)(F)F [Example 279, 5-(5-Fluoro-6-(piperidin-4-yloxy)isoindolin-2-yl)-4-(trifluoromethyl)pyridazin-3(2H)-one]
≤ 6.00 | CCc1c(N2Cc3cccc(OCCO)c3C2)cn[nH]c1=O [Example 185, 4-Ethyl-5-(4-(2-hydroxyethoxy)isoindolin-2-yl)pyridazin-3(2H)-one]
6.00 to 7.00 | C[C@H]1CCN(c2cn[nH]c(=O)c2C(F)(F)F)[C@H]1COc1cccc(C(=O)N2CCN(c3ccc(C#N)cn3)CC2)c1 [Example 459, 6-(4-(3-(((2R,3S)-3-methyl-1-(6-oxo-5-(trifluoromethyl)-1,6-dihydropyridazin-4-yl)pyrrolidin-2-yl)methoxy)benzoyl)piperazin-1-yl)nicotinonitrile]
> 7.00 | CC[C@@H](COCCC(=O)N1CCN(c2ncc(C(F)(F)F)cn2)CC1)Oc1cn[nH]c(=O)c1C(F)(F)F [Example 37, 5-[[(2S)-1-(3-Oxo-3-[4-[5-(trifluoromethyl)pyrimidin-2-yl]piperazin-1-yl]propoxy)butan-2-yl]oxy]-4-(trifluoromethyl)-2,3-dihydropyridazin-3-one]
> 7.00 | O=C(C[C@@H]1CC[C@H](COc2cn[nH]c(=O)c2C(F)(F)F)O1)N1CCN(c2ncc(C(F)(F)F)cn2)CC1 [Example 574 Isomer D, 5-(((2R,5S)-5-(2-Oxo-2-(4-(5-(trifluoromethyl)pyrimidin-2-yl)piperazin-1-yl)ethyl)-tetrahydrofuran-2-yl)methoxy)-4-(trifluoromethyl)pyridazin-3(2H)-one]
6.00 to 7.00 | C[C@H](OCCC(=O)N1CCN(c2ccc(C#N)cn2)CC1)[C@@H]1CCCN1c1cn[nH]c(=O)c1C(F)(F)F [Example 140B, 6-(4-[3-[(1S)-1-[(2S)-1-[6-oxo-5-(trifluoromethyl)-1,6-dihydropyridazin-4-yl]pyrrolidin-2-yl]ethoxy]propanoyl]piperazin-1-yl)pyridine-3-carbonitrile]
> 7.00 | N#Cc1ccc(N2CCN(C(=O)CCCCCNc3cn[nH]c(=O)c3C(F)(F)F)CC2)nc1 [Example 511, 6-[4-(6-[[6-Oxo-5-(trifluoromethyl)-1,6-dihydropyridazin-4-yl]amino]hexanoyl)piperazin-1-yl]pyridine-3-carbonitrile]
≤ 6.00 | N#CCC1c2ccccc2CN1c1cn[nH]c(=O)c1C(F)(F)F (stereo not shown) [Example 330, 2-(2-(6-Oxo-5-(trifluoromethyl)-1,6-dihydropyridazin-4-yl)isoindolin-1-yl)acetonitrile]
> 7.00 | Cc1cnc(N2CCN(C(=O)CCOC[C@H](C)Oc3cn[nH]c(=O)c3C(F)(F)F)CC2)nc1 [Example 687, (S)-5-((1-(3-(4-(5-Methylpyrimidin-2-yl)piperazin-1-yl)-3-oxopropoxy)propan-2-yl)oxy)-4-(trifluoromethyl)pyridazin-3(2H)-one]
6.00 to 7.00 | O=c1[nH]ncc(N2Cc3ccc(OCCN4CCOCC4)nc3C2)c1C(F)(F)F [Example 316, 5-(2-(2-Morpholinoethoxy)-5,7-dihydro-6H-pyrrolo[3,4-b]pyridin-6-yl)-4-(trifluoromethyl)pyridazin-3(2H)-one]
